Laboratory results as given in patent publication US12570655B2, “Cysteine covalent modifiers of AKT1 and uses thereof” (Terremoto Biosciences, Inc., priority 2023, dated 2026).
Like-named read-outs stand apart in the source and are kept apart here.

How the values were obtained:
Type in all cases: cell-based
[1] = biological target: T1, AKT1 E17K (Homo sapiens, UniProt P31749, E17K); assay: Live cell AKT1 E17K target engagement by NanoBRET competitive probe displacement; conditions: HEK293 cells transfected with kinase-NanoLuciferase fusion, 2 h at 37° C.
T1 construct: expressed in transfected cells; host or cells: HEK293
T1 sequence (P31749 whole entry E17K, the tested form may be a part): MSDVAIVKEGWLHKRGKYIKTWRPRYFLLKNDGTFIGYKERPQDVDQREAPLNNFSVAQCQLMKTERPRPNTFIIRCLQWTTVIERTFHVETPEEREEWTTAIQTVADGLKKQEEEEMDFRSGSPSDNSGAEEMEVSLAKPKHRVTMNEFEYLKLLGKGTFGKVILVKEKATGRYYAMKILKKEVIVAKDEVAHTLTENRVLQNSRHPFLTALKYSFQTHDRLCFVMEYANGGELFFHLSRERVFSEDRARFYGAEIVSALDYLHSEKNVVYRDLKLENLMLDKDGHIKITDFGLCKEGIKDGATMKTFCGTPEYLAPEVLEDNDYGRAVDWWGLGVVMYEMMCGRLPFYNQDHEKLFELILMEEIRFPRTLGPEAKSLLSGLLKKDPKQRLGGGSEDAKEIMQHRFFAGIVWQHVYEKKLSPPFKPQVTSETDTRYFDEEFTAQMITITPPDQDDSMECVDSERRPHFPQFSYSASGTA
Protocol: (§1) Determining Live Cell AKT1 E17K, AKT1 WT, and AKT2 Target Engagement by NanoBRET Competitive Probe Displacement.
(§2) Live cell target engagement assays were performed as described (Vasta, J. D. et al. Cell Chem Biol 2018, 25(11), 206-214). Briefly, HEK293 cells were transfected with plasmids encoding kinase-NanoLuciferase fusion proteins overnight. Cells were then treated with serial dilutions of compound and an ˜EC50 concentration of fluorescently-tagged ATP-competitive tracer (Promega). After incubation for 2 h at 37° C., luciferase substrate and extracellular luciferase inhibitor were added to all wells, and luminescent intensity at 460 nm and 600 nm were measured on a multimode plate-reader. The ratio of E600/E460 was calculated to give the tracer engagement signal (BRET). IC50 values were calculated by fitting BRET values to a log(inhibitor) vs. response Hill equation.

[2] = tested on: LAPC4 prostate cancer cells; assay: Antiproliferative effects in LAPC4 cells (CellTiter Glo); conditions: LAPC4 cells (AKT1 E17K allele), read-out: LAPC4 proliferation IC50
Protocol: Antiproliferative Effects in LAPC4 Cells.
LAPC4 prostate cancer cells (Klein, K. A. et al. Nat Med 1997, 3, 402-408), which express the AKT1 E17K allele, were grown in IMDM media (Hyclone) supplemented with 12% FBS+1% P/S. To assess compound effects on growth, 1,000 cells/well were seeded in 384 well assay plates, incubated with compound dilutions dissolved in DMSO. After 72 h, intracellular ATP content was assessed with CellTiter Glo reagent (Promega) according to the manufacturer's instructions. IC50 values were calculated by fitting luminescence values to a log(inhibitor) vs. response Hill equation.

[3] = biological target: T2, AKT2 (Homo sapiens, UniProt P31751); assay: Live cell AKT2 target engagement by NanoBRET competitive probe displacement; conditions: HEK293 cells transfected with kinase-NanoLuciferase fusion, 2 h at 37° C.
T2 construct: expressed in transfected cells; host or cells: HEK293
T2 sequence (P31751 whole entry, the tested form may be a part): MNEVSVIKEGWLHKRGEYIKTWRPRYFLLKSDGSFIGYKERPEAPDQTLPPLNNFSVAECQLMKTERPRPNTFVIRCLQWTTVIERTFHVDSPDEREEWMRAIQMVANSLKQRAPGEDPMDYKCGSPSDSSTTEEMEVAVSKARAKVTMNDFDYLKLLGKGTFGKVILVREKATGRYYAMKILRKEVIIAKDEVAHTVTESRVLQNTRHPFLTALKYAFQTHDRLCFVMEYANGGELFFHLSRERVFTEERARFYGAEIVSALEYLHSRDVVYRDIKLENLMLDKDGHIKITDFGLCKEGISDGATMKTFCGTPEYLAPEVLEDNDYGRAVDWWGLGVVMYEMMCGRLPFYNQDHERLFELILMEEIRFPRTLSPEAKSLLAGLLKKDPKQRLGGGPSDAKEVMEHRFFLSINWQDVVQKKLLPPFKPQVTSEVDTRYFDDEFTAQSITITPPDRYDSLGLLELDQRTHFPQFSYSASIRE
Protocol: as §1, §2

[4] = biological target: T3, AKT1 WT (Homo sapiens, UniProt P31749); assay: Live cell AKT1 WT target engagement by NanoBRET competitive probe displacement; conditions: HEK293 cells transfected with kinase-NanoLuciferase fusion, 2 h at 37° C.
T3 construct: expressed in transfected cells; host or cells: HEK293
T3 sequence (P31749 whole entry, the tested form may be a part): as the sequence (P31749 whole entry E17K, the tested form may be a part) above, with K17E counted along it
Protocol: as §1, §2

| Compound | IC50 [1] [nM] | IC50 ([2]; Homo sapiens, LAPC4, 72 h) [nM] | IC50 [3] [nM] | IC50 ([2]; 72 h) [nM] | IC50 [4] [nM] |
| --- | --- | --- | --- | --- | --- |
| C=CC(=O)N1CCN(N(C)C2CCc3cc(-n4c(-c5cccnc5N)nc5ccc(-n6cccn6)nc54)ccc32)CC1 (single isomer, unassigned) [Example 179, 1-(4-{[(1*)-5-[2-(2-aminopyridin-3-yl)-5-(pyrazol-1-yl)imidazo[4,5-b]pyridin-3-yl]-2,3-dihydro-1H-inden-1-yl](methyl)amino}piperazin-1-yl)prop-2-en-1-one] | 203 | – | – | 3520 | 2890 |
| C=CC(=O)N1CCc2cccc(C(=O)N[C@H]3CCc4cc(-n5c(-c6cccnc6N)nc6ccc(-n7cccn7)nc65)ccc43)c2C1 [Example 235, (S)-2-acryloyl-N-(5-(2-(2-aminopyridin-3-yl)-5-(1H-pyrazol-1-yl)-3H-imidazo[4,5-b]pyridin-3-yl)-2,3-dihydro-1H-inden-1-yl)-1,2,3,4-tetrahydroisoquinoline-8-carboxamide] | 12.6 | 65.8 | – | – | 51.5 |
| C=CC(=O)N1CCC(N[C@H]2CCc3cc(-n4c(-c5cccnc5N)nc5cc(-c6ccccn6)cnc54)ccc32)CC1 [Example 269, 1-(4-{[(1S)-5-[2-(2-aminopyridin-3-yl)-6-(pyridin-2-yl)imidazo[4,5-b]pyridin-3-yl]-2,3-dihydro-1H-inden-1-yl]amino}piperidin-1-yl)prop-2-en-1-one] | 247 | 5390 | – | – | 2120 |
| C=CC(=O)N1CCC(NC2CCc3cc(-n4c(-c5cccnc5N)nc5ccc(C(F)F)nc54)ccc32)CC1 (stereo in doubt) [Example 196, 1-(4-{[(1R)-5-[2-(2-aminopyridin-3-yl)-5-(difluoromethyl)imidazo[4,5-b]pyridin-3-yl]-?3-dihydro-1H-inden-1-yl]amino}piperidin-1-yl)prop-2-en-1-one] | 96.6 | 1210 | – | – | 1990 |
| C=CC(=O)N1CCC(N[C@@H]2c3ccc(-n4c(-c5ccccc5)nc5ccc(-n6ccc(F)n6)nc54)cc3CC2F)CC1 (stereo partly drawn) [Example 332, 1-(4-(((1R,2*)-2-fluoro-5-(5-(3-fluoro-1H-pyrazol-1-yl)-2-phenyl-3H-imidazo[4,5-b]pyridin-3-yl)-2,3-dihydro-1H-inden-1-yl)amino)piperidin-1-yl)prop-2-en-1-one] | 27.9 | – | 481 | – | – |
| C=CC(=O)N1CCC(N[C@H]2CCc3cc(-n4c(-c5cccnc5N)nc5ccc(N6CCCC6)nc54)ccc32)CC1 [Example 170, 1-(4-{[(1S)-5-[2-(2-aminopyridin-3-yl)-5-(pyrrolidin-1-yl)imidazo[4,5-b]pyridin-3-yl]-2,3-dihydro-1H-inden-1-yl]amino}piperidin-1-yl)prop-2-en-1-one] | 12.5 | 160 | – | – | 114 |
| C=CC(=O)N1CCN(CC2CCc3cc(-n4c(-c5cccnc5N)nc5ccc(-n6cccn6)nc54)ccc32)C[C@H]1C (single isomer, unassigned) [Example 292, 1-((R)-4-(((*)-5-(2-(2-aminopyridin-3-yl)-5-(1H-pyrazol-1-yl)-3H-imidazo[4,5-b]pyridin-3-yl)-2,3-dihydro-1H-inden-1-yl)methyl)-2-methylpiperazin-1-yl)prop-2-en-1-one] | 6.85 | 134 | – | – | 44.9 |
| C=CC(=O)N1CCC(N[C@H]2CCc3cc(-n4c(-c5cccnc5N)nc5cc(-c6ccncc6)cnc54)ccc32)CC1 [Example 191, (S)-1-(4-((5-(2-(2-aminopyridin-3-yl)-6-(pyridin-4-yl)-3H-imidazo[4,5-b]pyridin-3-yl)-2,3-dihydro-1H-inden-1-yl)amino)piperidin-1-yl)prop-2-en-1-one] | 221 | 3370 | – | – | 1250 |
| C=CC(=O)N1CCC(N[C@H]2CCc3cc(-n4c(-c5cccnc5N)nc5ccc(-n6cccn6)nc54)ccc32)CC1CC#N (single isomer, unassigned) [Example 339, 2-((2*,4*)-1-acryloyl-4-(((S)-5-(2-(2-aminopyridin-3-yl)-5-(1H-pyrazol-1-yl)-3H-imidazo[4,5-b]pyridin-3-yl)-2,3-dihydro-1H-inden-1-yl)amino)piperidin-2-yl)acetonitrile] | 32.7 | – | 78.8 | – | – |

Other lines, results leading:

| IC50 [1] [nM] | IC50 ([2]; Homo sapiens, LAPC4, 72 h) [nM] | IC50 [3] [nM] | IC50 ([2]; 72 h) [nM] | IC50 [4] [nM] | Compound |
| --- | --- | --- | --- | --- | --- |
| 12.6 | 614 | 143 | – | – | C=CC(=O)N1CCC(N[C@@H]2c3ccc(-n4c(-c5ccccc5)nc5ccc(-n6cccn6)nc54)cc3CC2F)CC1 (single isomer, unassigned) [Example 249, 1-(4-(((1R,2*)-2-fluoro-5-(2-phenyl-5-(1H-pyrazol-1-yl)-3H-imidazo[4,5-b]pyridin-3-yl)-2,3-dihydro-1H-inden-1-yl)amino)piperidin-1-yl)prop-2-en-1-one] |
| 49.6 | – | 301 | 1600 | – | C=CC(=O)N1CCC(N[C@@H]2c3ccc(-n4c(-c5ccccc5F)nc5ccc(-n6cccn6)nc54)cc3CC2F)C[C@H]1C (single isomer, unassigned) [Example 319, 1-((2R,4*)-4-(((1R,2*)-2-fluoro-5-(2-(2-fluorophenyl)-5-(1H-pyrazol-1-yl)-3H-imidazo[4,5-b]pyridin-3-yl)-2,3-dihydro-1H-inden-1-yl)amino)-2-methylpiperidin-1-yl)prop-2-en-1-one] |
| 23.9 | – | 194 | – | – | C=CC(=O)N1CCC(N[C@@H]2c3c(F)cc(-n4c(-c5cccnc5N)nc5ccc(-n6cccn6)nc54)cc3CC2F)CC1 (single isomer, unassigned) [Example 342, 1-(4-(((1R,2*)-5-(2-(2-aminopyridin-3-yl)-5-(1H-pyrazol-1-yl)-3H-imidazo[4,5-b]pyridin-3-yl)-2,7-difluoro-2,3-dihydro-1H-inden-1-yl)amino)piperidin-1-yl)prop-2-en-1-one] |
| 14.7 | – | 134 | 559 | – | C=CC(=O)N1CCC(N[C@@H]2c3ccc(-n4c(-c5ccccc5)nc5ccc(-n6cccn6)nc54)cc3CC2F)CC1 (single isomer, unassigned) [Example 250, 1-(4-(((1R,2*)-2-fluoro-5-(2-phenyl-5-(1H-pyrazol-1-yl)-3H-imidazo[4,5-b]pyridin-3-yl)-2,3-dihydro-1H-inden-1-yl)amino)piperidin-1-yl)prop-2-en-1-one] |
| 29.7 | – | 111 | 626 | – | C=CC(=O)N1CCC(N[C@@H]2c3ccc(-n4c(-c5ccccc5F)nc5ccc(-n6cccn6)nc54)cc3CC2F)C[C@H]1C (single isomer, unassigned) [Example 318, 1-((2R,4*)-4-(((1R,2*)-2-fluoro-5-(2-(2-fluorophenyl)-5-(1H-pyrazol-1-yl)-3H-imidazo[4,5-b]pyridin-3-yl)-2,3-dihydro-1H-inden-1-yl)amino)-2-methylpiperidin-1-yl)prop-2-en-1-one] |
| 8.86 | – | – | 172 | 105 | C=CC(=O)N1CCC(N[C@@H]2c3ccc(-n4c(-c5cccnc5N)nc5ccc(-n6cccn6)nc54)cc3CC2F)CC1C(F)F (single isomer, unassigned) [Example 301, 1-((2*,4*)-4-(((1R,2*)-5-(2-(2-aminopyridin-3-yl)-5-(1H-pyrazol-1-yl)-3H-imidazo[4,5-b]pyridin-3-yl)-2-fluoro-2,3-dihydro-1H-inden-1-yl)amino)-2-(difluoromethyl)piperidin-1-yl)prop-2-en-1-one] |
| 10.9 | – | – | 15.1 | 22.1 | C=CC(=O)N1CCC(N[C@@H]2c3ccc(-n4c(-c5cccnc5N)nc5ccc(-n6cccn6)nc54)cc3CC2F)CC1C(F)F (single isomer, unassigned) [Example 303, 1-((2*,4*)-4-(((1R,2*)-5-(2-(2-aminopyridin-3-yl)-5-(1H-pyrazol-1-yl)-3H-imidazo[4,5-b]pyridin-3-yl)-2-fluoro-2,3-dihydro-1H-inden-1-yl)amino)-2-(difluoromethyl)piperidin-1-yl)prop-2-en-1-one] |
| 17.7 | – | 90.3 | – | – | C=CC(=O)N1CCC(N[C@@H]2c3ccc(-n4c(-c5ccccc5)nc5ccc(-n6cccn6)nc54)cc3CC2F)CC1C(F)F (single isomer, unassigned) [Example 328, 1-((2*,4*)-2-(difluoromethyl)-4-(((1R,2*)-2-fluoro-5-(2-phenyl-5-(1H-pyrazol-1-yl)-3H-imidazo[4,5-b]pyridin-3-yl)-2,3-dihydro-1H-inden-1-yl)amino)piperidin-1-yl)prop-2-en-1-one] |
| 4.87 | – | – | 9.69 | 13.8 | C=CC(=O)N1CCC(N[C@H]2CCc3cc(-n4c(-c5cccnc5N)nc5ccc(-n6cccn6)nc54)ccc32)C[C@@H]1C(F)F (single isomer, unassigned) [Example 213, 1-((2R,4*)-4-(((S)-5-(2-(2-aminopyridin-3-yl)-5-(1H-pyrazol-1-yl)-3H-imidazo[4,5-b]pyridin-3-yl)-2,3-dihydro-1H-inden-1-yl)amino)-2-(difluoromethyl)piperidin-1-yl)prop-2-en-1-one] |
